Measurements published in publication PMC7462607 (eLife, 2020).
Where two headings read alike, the source gives them in different places.

Columns and labels:
CCNK-luc reporter = assay: CCNK-luc degradation assay; type: cell-based, Homo sapiens
Description: The ORF for CCNK was fused with the firefly luciferase (luc) sequence and inserted into the pCDNA3.1 vector. For setting up cells for co-transfection, 0.6 million 293 T cells were seeded per well in 6-well plates and allowed to attach to plates overnight. These cells were then transfected with 50 ng of pCDNA3.1-3xFLAG-CDK12 kinase domain, 50 ng of pCDNA3.1-CCNK-luc, and 400 ng of the empty pCDNA3.1 vector. Twenty-four hours later, transfected cells were dissociated by trypsin digestion and then plated in 96-well white plates. After overnight attachments, cells were then treated with HQ461 and its analog derivatives for 8 hr followed by measurements of luciferase activity with Bright-Glo luciferase assay system (Promega, Madison, USA). Half maximal CCNK-degradation concentrations (DC50) of HQ461 and its active analogs were interpolated by curve fitting with GraphPad Prism using baseline correction (by normalizing to DMSO control), the asymmetric (five parameter) equation, and least squares fit.

CCNK = assay: Western blotting of CCNK protein level in A549 cells; type: cell-based, Homo sapiens; details: for effect on HQ461-dependent CCNK degradation: A549 treated with HQ461 plus inhibitor; for CCNK degradation by compound alone: A549; for effect on HQ461-induced CCNK degradation: A549 treated with inhibitor prior to HQ461 treatment
Description: Standard SDS-PAGE and western blotting procedures were used with the following modifications. For preparation of total lysates, cells were rinsed with DPBS to remove residual medium and then lysed in 20 mM HEPES-NaOH, pH 8.0, 10 mM NaCl, 2 mM MgCl2, 1% SDS freshly supplemented with 0.5 units/µL of benzonase and 1x cOmplete, Mini, EDTA-free protease inhibitor cocktail (Roche, Bazel, Switzerland). Protein concentrations of the resulting lysates were quantified by the BCA method. Between 30 to 60 µg of proteins were resolved on SDS-PAGE and transferred to nitrocellulose membranes with a pore size of 0.5 μm. Membranes were blocked in 5% nonfat milk PBST (0.1% v/v Tween-20) for 30 min before blotting with antibodies. The following primary antibodies were used by dilution in 5% nonfat milk PBST: anti-NRF2 (Abcam, Cambridge, UK, ab62352, 1:4,000), anti-β-Actin-HRP (Huaxingbio, Beijing, China, HX18271,1:10,000), anti-α-Tubulin-HRFP (MBL Life Science, Japan, PM054-7, 1:10,000), anti-DDB1 (Abcam, Cambridge, UK, ab109027, 1:10,000), anti-RBX1 (Proteintech, Wuhan, China, 14895–1-AP, 1:5,000), anti-UBE2G1 (Proteintech, Wuhuan, China, 12012–1-AP, 1:2,000), anti-CDK12 (Cell Signaling Technology, Danvers, USA, 11973S,1:4,000), anti-CCNK (Bethyl lab, Montgomery, USA, A301-939A-T,1:4,000), anti-FLAG-HRP (Sigma-Aldrich, MO, USA, A8592, 1:10,000), anti-HA (BioLegend, San Diego, USA, 901533, 1:4,000), anti-RNA polymerase II subunit B1 (phospho CTD Ser-2) clone 3E10 (Sigma-Aldrich, MO, USA, 04–1571, 1:5,000), and anti-RNA polymerase II CTD repeat YSPTSPS antibody clone 8WG16 (Abcam, Cambridge, UK, ab817, 1:5,000). The following HRP-linked secondary antibodies were used by dilution in PBST: anti-rabbit IgG (Cell Signaling Technology, Danvers, USA, 7074S, 1:10,000), anti-mouse IgG (Zsbio, Beijing, China, ZB-2305, 1:10,000), and anti-rat IgG, (Sino Biological, Beijing, China, SSA005, 1:10,000). M5 HiPer ECL Western HRP Substrate (Mei5bio, Beijing, China, MF074-01) was used for the detection of HRP enzymatic activity. Western blot images were taken with a VILBER FUSION FX7 imager.

[1] = biological target: T1, FLAG-Avi-DDB1 and His-CDK12KD/His-CCNKΔC (WT) (Homo sapiens, UniProt Q9NYV4); assay: AlphaScreen assay, WT; type: binding; details: preincubated with 5 µM THZ531
T1 construct: Human CDK12KD (residues 715–1052); made in house; host or cells: Sf9 or High Five (CDK12KD/CCNKΔC, co-infected with yeast CAK1); 293F with BirA (FLAG-Avi-DDB1)
Description: Biotinylated FLAG-Avi-DDB1 (3 µM) and 6xHis-CDK12KD/6xHis-CCNKΔC (WT or G731E/R mutants) (3 µM) were mixed in an assay buffer (50 mM HEPES, pH7.5, 300 mM NaCl, 0.5 mM TCEP, 0.1% NP-40, 0.1% BSA) and a serial dilution of HQ461.The protein-compound mix was transferred to 384-well plates (Corning, Corning, USA); 15 μL per well. After a 1 hr room temperature incubation, 10 µL of nickel chelate (Ni-NTA) acceptor beads (PerkinElmer, Waltham, USA, Waltham, USA, 6760619C) (1:100 diluted with assay buffer) was added per well. After incubation in the dark for 1 hr at room temperature, 10 μL of streptavidin donor beads (PerkinElmer, Waltham, USA, 6760619C) (1:100 diluted in assay buffer) was added per well. After another 1 hr incubation, AlphaScreen signal was measured on the EnVision multimode plate reader (PerkinElmer, Waltham, USA). For THZ531 competition, FLAG-Avi-DDB1, 6xHis-CDK12KD/6xHis-CCNKΔC mix was preincubated with 5 μM of THZ531 for 30 min on ice followed by the procedures described above.

[2] = biological target: T2, DDB1ΔBPB (DDB1 without its BPB domain) (human, UniProt Q16531-1 1-1140, removing residues 400–704); assay: differential scanning fluorimetry; 5 µM DDB1ΔBPB with 10 µM HBx peptide; SYPRO Orange; 50 mM HEPES pH 7.5, 300 mM NaCl, 0.5 mM TCEP; 10°C to 95°C; details: both partners purified
T2 construct: also called Strep-8×His-DDB1ΔBPB

[3] = 293T, 8 hr, read-out: DC50 (half maximal CCNK-degradation concentration)

T1 sequence (Q9NYV4 715-1052 limits assumed, stated change not applied): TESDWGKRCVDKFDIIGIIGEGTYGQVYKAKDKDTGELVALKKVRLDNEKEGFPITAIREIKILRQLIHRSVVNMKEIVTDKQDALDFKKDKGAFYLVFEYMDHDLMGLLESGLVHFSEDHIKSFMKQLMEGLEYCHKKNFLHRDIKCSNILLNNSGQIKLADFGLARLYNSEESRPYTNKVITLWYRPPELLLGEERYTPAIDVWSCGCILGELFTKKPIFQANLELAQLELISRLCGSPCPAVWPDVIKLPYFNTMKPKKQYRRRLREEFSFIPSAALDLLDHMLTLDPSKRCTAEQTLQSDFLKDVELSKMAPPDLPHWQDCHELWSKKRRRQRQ
T1 sequence (O75909 11-267 partner limits assumed): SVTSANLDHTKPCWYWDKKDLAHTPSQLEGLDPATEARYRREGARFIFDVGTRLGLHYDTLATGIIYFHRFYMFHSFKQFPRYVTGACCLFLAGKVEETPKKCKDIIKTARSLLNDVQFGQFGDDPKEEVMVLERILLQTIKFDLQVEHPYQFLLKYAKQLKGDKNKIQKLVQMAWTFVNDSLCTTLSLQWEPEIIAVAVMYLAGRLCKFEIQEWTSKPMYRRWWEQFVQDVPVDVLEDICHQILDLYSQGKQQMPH
T1 sequence (Q16531 whole entry partner, the tested form may be a part): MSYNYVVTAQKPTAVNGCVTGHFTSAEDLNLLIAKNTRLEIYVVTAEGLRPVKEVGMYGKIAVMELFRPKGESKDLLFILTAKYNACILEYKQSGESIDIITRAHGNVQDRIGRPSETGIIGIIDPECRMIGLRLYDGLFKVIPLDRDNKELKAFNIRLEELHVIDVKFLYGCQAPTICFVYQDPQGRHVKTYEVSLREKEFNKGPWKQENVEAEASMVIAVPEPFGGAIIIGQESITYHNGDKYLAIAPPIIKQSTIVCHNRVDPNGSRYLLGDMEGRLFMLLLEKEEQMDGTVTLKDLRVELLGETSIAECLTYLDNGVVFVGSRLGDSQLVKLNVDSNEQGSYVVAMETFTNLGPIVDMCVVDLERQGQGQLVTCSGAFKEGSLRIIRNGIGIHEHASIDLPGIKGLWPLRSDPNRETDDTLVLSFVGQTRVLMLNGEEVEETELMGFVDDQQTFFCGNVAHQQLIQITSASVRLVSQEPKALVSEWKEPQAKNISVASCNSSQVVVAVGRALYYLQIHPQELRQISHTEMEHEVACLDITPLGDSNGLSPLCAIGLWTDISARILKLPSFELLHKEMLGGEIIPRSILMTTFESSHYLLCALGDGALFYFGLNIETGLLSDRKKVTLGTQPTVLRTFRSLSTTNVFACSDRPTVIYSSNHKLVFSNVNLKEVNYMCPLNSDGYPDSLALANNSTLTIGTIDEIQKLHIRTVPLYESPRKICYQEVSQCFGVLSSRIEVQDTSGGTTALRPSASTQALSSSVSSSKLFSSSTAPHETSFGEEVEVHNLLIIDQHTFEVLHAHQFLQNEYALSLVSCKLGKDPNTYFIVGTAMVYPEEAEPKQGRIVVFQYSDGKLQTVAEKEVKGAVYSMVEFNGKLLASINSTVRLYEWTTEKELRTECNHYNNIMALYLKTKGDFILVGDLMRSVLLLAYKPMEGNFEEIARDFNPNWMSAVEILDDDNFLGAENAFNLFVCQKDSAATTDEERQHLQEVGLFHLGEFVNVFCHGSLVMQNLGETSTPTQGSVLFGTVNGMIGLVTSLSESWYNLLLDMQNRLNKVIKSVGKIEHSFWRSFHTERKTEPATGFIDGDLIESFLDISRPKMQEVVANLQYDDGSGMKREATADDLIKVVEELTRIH
T2 sequence (Q16531 other isoform, or with tags, fused parts or gaps with the stated changes): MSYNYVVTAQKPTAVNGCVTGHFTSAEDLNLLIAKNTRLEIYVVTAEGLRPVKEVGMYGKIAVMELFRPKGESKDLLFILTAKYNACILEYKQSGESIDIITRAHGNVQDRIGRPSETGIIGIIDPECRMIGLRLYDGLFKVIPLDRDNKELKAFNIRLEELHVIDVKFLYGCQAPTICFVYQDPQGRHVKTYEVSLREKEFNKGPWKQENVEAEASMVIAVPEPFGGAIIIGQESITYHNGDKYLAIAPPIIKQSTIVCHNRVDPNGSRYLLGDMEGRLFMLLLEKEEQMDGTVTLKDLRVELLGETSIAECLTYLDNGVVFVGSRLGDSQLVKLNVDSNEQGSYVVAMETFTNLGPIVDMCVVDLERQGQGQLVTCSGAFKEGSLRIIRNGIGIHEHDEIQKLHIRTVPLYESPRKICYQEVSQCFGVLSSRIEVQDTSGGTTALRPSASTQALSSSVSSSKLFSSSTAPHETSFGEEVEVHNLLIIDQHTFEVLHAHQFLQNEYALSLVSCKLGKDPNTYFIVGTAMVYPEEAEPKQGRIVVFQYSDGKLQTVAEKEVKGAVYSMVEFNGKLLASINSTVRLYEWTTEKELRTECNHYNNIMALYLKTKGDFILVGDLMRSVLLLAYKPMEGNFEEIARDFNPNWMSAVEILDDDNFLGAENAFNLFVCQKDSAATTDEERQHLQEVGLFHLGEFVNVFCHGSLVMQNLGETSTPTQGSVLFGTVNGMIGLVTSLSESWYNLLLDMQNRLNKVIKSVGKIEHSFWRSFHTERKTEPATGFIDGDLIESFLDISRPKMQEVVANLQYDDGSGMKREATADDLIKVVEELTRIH

Row | Molecule | DC50 (CCNK-luc reporter; [3]) [nM] | Dmax (10 μM), percentage of CCNK degradation relative to DMSO control (CCNK-luc reporter; 8 hr) [%] | further results
1 | Cc1cnc(NC(=O)Cc2csc(Nc3cccc(F)n3)n2)s1 [HQ001, 2-(2-((6-fluoropyridin-2-yl)amino)thiazol-4-yl)-N-(5-methylthiazol-2-yl)acetamide] | 300 |  | 
2 | Cc1cnc(NC(=O)Cc2csc(Nc3cccc(Cl)n3)n2)s1 [HQ002, 2-(2-((6-chloropyridin-2-yl)amino)thiazol-4-yl)-N-(5-methylthiazol-2-yl)acetamide] | 471 |  | 
3 | Cc1cnc(NC(=O)Cc2csc(Nc3cccc(Br)n3)n2)s1 [HQ003, 2-(2-((6-bromopyridin-2-yl)amino)thiazol-4-yl)-N-(5-methylthiazol-2-yl)acetamide] | 407 |  | 
4 | CCc1cccc(Nc2nc(CC(=O)Nc3ncc(C)s3)cs2)n1 [HQ004, 2-(2-((6-ethylpyridin-2-yl)amino)thiazol-4-yl)-N-(5-methylthiazol-2-yl)acetamide] | 542 |  | 
5 | Cc1cnc(NC(=O)Cc2csc(Nc3cccc(CO)n3)n2)s1 [HQ005, 2-(2-((6-(hydroxymethyl)pyridin-2-yl)amino)thiazol-4-yl)-N-(5-methylthiazol-2-yl)acetamide] |  | 86.5 | fold increase in potency relative to HQ461 (CCNK-luc reporter): 3 fold; DC50 (CCNK-luc reporter; read-out: DC50): 41 nM
6 | COc1cccc(Nc2nc(CC(=O)Nc3ncc(C)s3)cs2)n1 [HQ006, 2-(2-((6-methoxypyridin-2-yl)amino)thiazol-4-yl)-N-(5-methylthiazol-2-yl)acetamide] | 466 |  | 
7 | Cc1cnc(NC(=O)Cc2csc(Nc3cccc(N)n3)n2)s1 [HQ007, 2-(2-((6-aminopyridin-2-yl)amino)thiazol-4-yl)-N-(5-methylthiazol-2-yl)acetamide] | 561 |  | 
8 | Cc1cnc(NC(=O)Cc2csc(Nc3cccc(-n4cccn4)n3)n2)s1 [HQ008, 2-(2-((6-(1H-pyrazol-1-yl)pyridin-2-yl)amino)thiazol-4-yl)-N-(5-methylthiazol-2-yl)acetamide] | 5030 |  | fold increase in DC50 relative to HQ461 (CCNK-luc reporter): 38 fold
9 | Cc1cnc(NC(=O)Cc2csc(Nc3cccc(C(F)(F)F)n3)n2)s1 [HQ009, N-(5-methylthiazol-2-yl)−2-(2-((6-(trifluoromethyl)pyridin-2-yl)amino)thiazol-4-yl)acetamide] | 2360 |  | 
10 | Cc1cnc(NC(=O)Cc2csc(Nc3ccccn3)n2)s1 [HQ010, N-(5-methylthiazol-2-yl)−2-(2-(pyridin-2-ylamino)thiazol-4-yl)acetamide] | 811 |  | fold increase in DC50 relative to HQ461 (CCNK-luc reporter): 6 fold
11 | Cc1cnc(NC(=O)Cc2csc(N)n2)s1 [HQ011, 2-(2-aminothiazol-4-yl)-N-(5-methylthiazol-2-yl)acetamide] |  |  | CCNK degradation activity relative to HQ461 (CCNK-luc reporter): losses in activity
12 | Nc1nc(CC(=O)Nc2nc(-c3ccco3)cs2)cs1 [HQ013, 2-(2-aminothiazol-4-yl)-N-(4-(furan-2-yl)thiazol-2-yl)acetamide] |  | 8.6 | 
13 | Cc1cnc(NC(=O)Cc2csc(NC(=O)c3cccc(Br)n3)n2)s1 [HQ014, 6-bromo-N-(4-(2-((5-methylthiazol-2-yl)amino)−2-oxoethyl)thiazol-2-yl) Picolinamide] |  | 9.9 | CCNK degradation activity relative to HQ461 (CCNK-luc reporter): losses in activity
14 | Cc1cccc(Nc2nc(CC(=O)NC(C)c3ccccc3)cs2)n1 (centres unmarked) [HQ015] |  | 8.6 | 
15 | Cc1cccc(Nc2nc(CC(N)=O)cs2)n1 [HQ017] |  | 4.2 | 
16 | Cc1ccnc(Nc2nc(CC(=O)Nc3nc4c(s3)CCCC4)cs2)c1 [HQ018] |  | 18.8 | 
17 | CC(=O)Nc1nc(CC(=O)Nc2ncc(C)s2)cs1 [HQ019] |  | 62.0 | CCNK degradation activity relative to HQ461 (CCNK-luc reporter): losses in activity
18 | O=C(Cc1csc(Nc2ccccn2)n1)NCc1nc2ccccc2[nH]1 [HQ020] |  | 15.5 | 
19 | NC(=O)c1ccccc1NC(=O)Cc1csc(Nc2ccccn2)n1 [HQ021] |  | 7.8 | 
20 | NC(=O)CNC(=O)Cc1csc(Nc2ccccn2)n1 [HQ022] |  | 25.7 | 
21 | CCc1ccccc1NC(=O)Cc1csc(Nc2ccccn2)n1 [HQ023] |  | 3.0 | 
22 | NS(=O)(=O)OC[C@@H]1C[C@@H](n2ccc3c(N[C@H]4CCc5ccccc54)ncnc32)C[C@@H]1O [MLN4924] |  |  | effect on HQ461-dependent CCNK degradation (CCNK): abrogated HQ461-dependent CCNK degradation
23 | CN(C)C/C=C/C(=O)Nc1ccc(C(=O)N2CCC[C@@H](Nc3ncc(Cl)c(-c4c[nH]c5ccccc45)n3)C2)cc1 [THZ531] |  |  | CCNK degradation by compound alone (CCNK): Neither THZ531 nor dinaciclib treatment caused CCNK degradation; effect on HQ461-induced CCNK degradation (CCNK): prevented CCNK degradation; effect on HQ461-dependent formation of the CDK12KD/CCNKΔC/DDB1 complex [1]: inhibited HQ461-dependent formation of the CDK12KD/CCNKΔC/DDB1 complex
24 | CC(C)C[C@H](NC(=O)[C@H](Cc1ccccc1)NC(=O)c1cnccn1)B(O)O [bortezomib] |  |  | effect on HQ461-dependent CCNK degradation (CCNK): abrogated HQ461-dependent CCNK degradation
25 | CCc1cnn2c(NCc3ccc[n+]([O-])c3)cc(N3CCCC[C@H]3CCO)nc12 [dinaciclib] |  |  | CCNK degradation by compound alone (CCNK): Neither THZ531 nor dinaciclib treatment caused CCNK degradation; effect on HQ461-induced CCNK degradation (CCNK): prevented CCNK degradation
26 | ILPKVLHKRTLGLS (peptide corresponding to the α-helical motif of hepatitis B virus X protein (HBx); also called HBx peptides; source: synthetic peptide (ChinaPetides, purity 96%)) [HBx peptide (α-helical motif of the hepatitis B virus X protein)] |  |  | increase in Tm [2]: 2 °C
